How the values were obtained:
[1] = AUC in cynomolgus monkey at 3 mg/kg, po and measured upto 24 hrs by LC-MS/MS analysis; assay type: ADME, organism-based, Macaca fascicularis; design: dose 3 mg/kg, time < 24 hrs, route po; conditions: in vivo
[2] = Volume of distribution at steady state in cynomolgus monkey at 1 mg/kg, iv and measured upto 24 hrs by LC-MS/MS analysis; assay type: ADME, organism-based, Macaca fascicularis; conditions: in vivo
[3] = Half life in cynomolgus monkey at 1 mg/kg, iv and measured upto 24 hrs by LC-MS/MS analysis; assay type: ADME, organism-based, Macaca fascicularis; conditions: in vivo
[4] = Clearance in cynomolgus monkey at 1 mg/kg, iv and measured upto 24 hrs by LC-MS/MS analysis; assay type: ADME, organism-based, Macaca fascicularis; conditions: in vivo
[5] = AUC in Sprague-Dawley rat at 3 mg/kg, po and measured upto 24 hrs by LC-MS/MS analysis; assay type: ADME, organism-based; design: dose 3 mg/kg, time < 24 hrs, route po; conditions: in vivo
[6] = Clearance in Sprague-Dawley rat at 1.5 mg/kg, iv and measured upto 24 hrs by LC-MS/MS analysis; assay type: ADME, organism-based; conditions: in vivo
[7] = Fraction unbound in human plasma by LC-MS/MS analysis; assay type: ADME, cell-free
[8] = Permeability across apical to basolateral side in human Caco2 cells at 50 uM and measured after 120 mins by LC-MS analysis; assay type: ADME, cell-based; conditions: Caco-2, read-out: permeability
[9] = biological target: T1, Mitogen-activated protein kinase kinase kinase kinase 1 (Homo sapiens, UniProt Q92918); experiment: Binding affinity to recombinant human HPK1 (1 to 346 residues) expressed sf9 cells incubated for 1 hr by LanthaScreen assay
[10] = biological target: T1, Mitogen-activated protein kinase kinase kinase kinase 1; experiment: Inhibition of human HPK1 in human Jurkat cells assessed as reduction in SLP76 phosphorylation incubated for 1 hr by HTRF assay; assay type: cell-based
[11] = Intrinsic clearance in human liver microsomes at 1 uM and measured upto 30 mins in presence of NADPH by LC-MS analysis; assay type: ADME, Microsome; conditions: read-out: CLH (converted)
[12] = Oral bioavailability in cynomolgus monkey at 3 mg/kg and measured upto 24 hrs by LC-MS/MS analysis; assay type: ADME, organism-based, Macaca fascicularis; conditions: in vivo
[13] = biological target: T1, Mitogen-activated protein kinase kinase kinase kinase 1; experiment: Inhibition of human HPK1 in human whole blood assessed as reduction in SLP76 phosphorylation incubated for 1 hr by HTRF assay; assay type: tissue-based
[14] = biological target: T2, Cytochrome P450 1A2 (Homo sapiens, UniProt P05177); experiment: Inhibition of CYP1A2 in human liver microsomes using 7- ethoxyresorufin as substrate by LC-MS analysis; assay type: ADME, Microsome
T2 sequence (P05177 whole entry): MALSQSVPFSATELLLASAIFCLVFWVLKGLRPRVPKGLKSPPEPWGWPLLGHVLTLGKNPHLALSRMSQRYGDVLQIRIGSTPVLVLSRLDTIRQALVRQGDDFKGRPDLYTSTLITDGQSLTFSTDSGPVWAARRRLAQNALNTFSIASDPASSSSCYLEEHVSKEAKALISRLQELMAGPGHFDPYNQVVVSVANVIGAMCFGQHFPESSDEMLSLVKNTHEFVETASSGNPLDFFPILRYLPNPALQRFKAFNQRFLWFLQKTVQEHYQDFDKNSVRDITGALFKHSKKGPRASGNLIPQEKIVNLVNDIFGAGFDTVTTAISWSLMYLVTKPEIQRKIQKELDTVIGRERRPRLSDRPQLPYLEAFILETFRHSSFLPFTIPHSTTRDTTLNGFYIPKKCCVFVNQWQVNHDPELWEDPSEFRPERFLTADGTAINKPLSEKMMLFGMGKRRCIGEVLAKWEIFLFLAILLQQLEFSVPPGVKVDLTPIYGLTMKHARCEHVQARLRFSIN

[15] = biological target: T3, Cytochrome P450 2B6 (Homo sapiens, UniProt P20813); experiment: Inhibition of CYP2B6 in human liver microsomes using bupropion as substrate by LC-MS analysis; assay type: ADME, Microsome
T3 sequence (P20813 whole entry): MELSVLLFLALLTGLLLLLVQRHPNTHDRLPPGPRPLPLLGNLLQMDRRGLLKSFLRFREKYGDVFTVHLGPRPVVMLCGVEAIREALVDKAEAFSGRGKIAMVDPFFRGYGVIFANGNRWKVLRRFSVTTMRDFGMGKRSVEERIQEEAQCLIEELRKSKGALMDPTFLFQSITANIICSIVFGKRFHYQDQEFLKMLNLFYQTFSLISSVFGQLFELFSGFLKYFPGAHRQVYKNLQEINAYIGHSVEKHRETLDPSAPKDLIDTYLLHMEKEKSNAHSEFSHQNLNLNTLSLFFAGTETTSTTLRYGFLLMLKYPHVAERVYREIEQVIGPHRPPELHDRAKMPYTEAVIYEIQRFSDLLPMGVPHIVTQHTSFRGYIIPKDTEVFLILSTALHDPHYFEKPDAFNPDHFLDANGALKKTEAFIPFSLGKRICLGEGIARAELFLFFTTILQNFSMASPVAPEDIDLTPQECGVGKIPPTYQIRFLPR

[16] = biological target: T4, Cytochrome P450 2C8 (Homo sapiens, UniProt P10632); experiment: Inhibition of CYP2C8 in human liver microsomes using amodiaquine as substrate by LC-MS analysis; assay type: ADME, Microsome
T4 sequence (P10632 whole entry): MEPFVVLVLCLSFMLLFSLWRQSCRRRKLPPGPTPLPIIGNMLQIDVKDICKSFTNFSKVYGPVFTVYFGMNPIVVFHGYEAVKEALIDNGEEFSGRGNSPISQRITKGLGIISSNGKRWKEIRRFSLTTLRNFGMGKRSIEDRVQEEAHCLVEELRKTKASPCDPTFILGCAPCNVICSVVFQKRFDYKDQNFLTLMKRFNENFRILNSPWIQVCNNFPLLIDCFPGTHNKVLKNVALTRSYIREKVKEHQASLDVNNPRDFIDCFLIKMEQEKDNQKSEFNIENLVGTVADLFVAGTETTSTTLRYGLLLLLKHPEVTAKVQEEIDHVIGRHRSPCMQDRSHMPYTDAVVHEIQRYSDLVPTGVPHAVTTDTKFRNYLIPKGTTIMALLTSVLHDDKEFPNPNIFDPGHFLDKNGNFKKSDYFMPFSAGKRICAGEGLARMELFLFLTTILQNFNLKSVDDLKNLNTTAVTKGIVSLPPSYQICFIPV

[17] = biological target: Cytochrome P450 2C9 (Homo sapiens, UniProt P11712); experiment: Inhibition of CYP2C9 in human liver microsomes using diclofenac as substrate by LC-MS analysis; assay type: ADME, Microsome
[18] = biological target: Cytochrome P450 2D6 (Homo sapiens, UniProt P10635); experiment: Inhibition of CYP2D6 in human liver microsomes using bufuralol as substrate by LC-MS analysis; assay type: ADME, Microsome
[19] = biological target: Cytochrome P450 3A4 (Homo sapiens, UniProt P08684); experiment: Inhibition of CYP3A4 in human liver microsomes using testosterone as substrate by LC-MS analysis; assay type: ADME, Microsome
[20] = biological target: hERG (KCNH2) (Homo sapiens, UniProt Q12809); experiment: Inhibition of human ERG at 5 uM by patch-clamp assay; assay type: toxicity
[21] = biological target: Cytochrome P450 2C19 (Homo sapiens, UniProt P33261); experiment: Inhibition of CYP2C19 in human liver microsomes using S mephenytoin as substrate by LC-MS analysis; assay type: ADME, Microsome
Sequence of Cytochrome P450 2C19 (P33261 whole entry): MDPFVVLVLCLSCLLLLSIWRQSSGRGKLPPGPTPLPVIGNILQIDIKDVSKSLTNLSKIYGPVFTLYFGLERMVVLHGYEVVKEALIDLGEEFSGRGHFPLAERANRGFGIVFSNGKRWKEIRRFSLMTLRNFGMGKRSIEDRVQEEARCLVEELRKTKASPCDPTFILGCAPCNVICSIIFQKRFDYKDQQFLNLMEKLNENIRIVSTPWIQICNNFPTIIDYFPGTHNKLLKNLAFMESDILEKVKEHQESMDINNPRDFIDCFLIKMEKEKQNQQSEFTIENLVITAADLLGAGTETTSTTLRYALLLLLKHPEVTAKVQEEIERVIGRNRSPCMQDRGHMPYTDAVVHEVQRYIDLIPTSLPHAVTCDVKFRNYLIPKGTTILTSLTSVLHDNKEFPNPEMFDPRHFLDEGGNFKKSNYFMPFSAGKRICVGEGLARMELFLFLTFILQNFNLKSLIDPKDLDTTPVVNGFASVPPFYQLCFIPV

T1 sequence (Q92918 whole entry, the tested form may be a part): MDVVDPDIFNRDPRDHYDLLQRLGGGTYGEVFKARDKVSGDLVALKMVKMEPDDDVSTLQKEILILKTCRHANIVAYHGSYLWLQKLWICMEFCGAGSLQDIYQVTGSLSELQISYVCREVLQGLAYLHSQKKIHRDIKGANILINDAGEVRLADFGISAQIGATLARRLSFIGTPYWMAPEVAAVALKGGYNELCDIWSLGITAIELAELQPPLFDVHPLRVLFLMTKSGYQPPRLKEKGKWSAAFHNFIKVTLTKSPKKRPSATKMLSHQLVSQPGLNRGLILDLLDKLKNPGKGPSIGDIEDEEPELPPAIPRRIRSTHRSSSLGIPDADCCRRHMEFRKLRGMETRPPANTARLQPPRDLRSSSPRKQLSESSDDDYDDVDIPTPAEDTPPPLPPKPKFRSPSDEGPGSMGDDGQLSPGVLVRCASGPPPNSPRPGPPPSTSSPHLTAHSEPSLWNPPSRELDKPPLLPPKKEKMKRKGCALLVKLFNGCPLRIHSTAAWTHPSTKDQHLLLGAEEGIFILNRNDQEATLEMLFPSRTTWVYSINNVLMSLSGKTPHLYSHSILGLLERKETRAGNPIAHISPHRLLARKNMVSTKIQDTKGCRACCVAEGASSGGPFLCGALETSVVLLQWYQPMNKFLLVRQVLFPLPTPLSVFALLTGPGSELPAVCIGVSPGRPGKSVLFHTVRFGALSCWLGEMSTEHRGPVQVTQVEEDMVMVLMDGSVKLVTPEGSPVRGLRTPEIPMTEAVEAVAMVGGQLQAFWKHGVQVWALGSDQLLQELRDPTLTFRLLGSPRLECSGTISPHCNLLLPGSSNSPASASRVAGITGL
Sequence of Cytochrome P450 2D6 (P10635 whole entry): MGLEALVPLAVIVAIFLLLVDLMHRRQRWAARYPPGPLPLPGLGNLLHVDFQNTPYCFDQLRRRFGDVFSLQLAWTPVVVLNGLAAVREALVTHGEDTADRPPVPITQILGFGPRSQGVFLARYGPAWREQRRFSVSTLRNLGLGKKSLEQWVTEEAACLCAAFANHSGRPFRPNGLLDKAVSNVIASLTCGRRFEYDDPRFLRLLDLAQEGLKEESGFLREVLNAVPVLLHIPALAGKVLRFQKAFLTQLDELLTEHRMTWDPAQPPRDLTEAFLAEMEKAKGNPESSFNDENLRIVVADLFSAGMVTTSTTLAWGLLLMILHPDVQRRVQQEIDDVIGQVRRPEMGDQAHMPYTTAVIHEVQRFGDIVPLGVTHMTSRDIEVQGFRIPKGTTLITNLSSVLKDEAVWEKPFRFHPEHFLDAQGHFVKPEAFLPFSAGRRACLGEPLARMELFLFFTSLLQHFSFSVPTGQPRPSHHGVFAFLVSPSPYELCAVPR
Sequence of Cytochrome P450 3A4 (P08684 whole entry): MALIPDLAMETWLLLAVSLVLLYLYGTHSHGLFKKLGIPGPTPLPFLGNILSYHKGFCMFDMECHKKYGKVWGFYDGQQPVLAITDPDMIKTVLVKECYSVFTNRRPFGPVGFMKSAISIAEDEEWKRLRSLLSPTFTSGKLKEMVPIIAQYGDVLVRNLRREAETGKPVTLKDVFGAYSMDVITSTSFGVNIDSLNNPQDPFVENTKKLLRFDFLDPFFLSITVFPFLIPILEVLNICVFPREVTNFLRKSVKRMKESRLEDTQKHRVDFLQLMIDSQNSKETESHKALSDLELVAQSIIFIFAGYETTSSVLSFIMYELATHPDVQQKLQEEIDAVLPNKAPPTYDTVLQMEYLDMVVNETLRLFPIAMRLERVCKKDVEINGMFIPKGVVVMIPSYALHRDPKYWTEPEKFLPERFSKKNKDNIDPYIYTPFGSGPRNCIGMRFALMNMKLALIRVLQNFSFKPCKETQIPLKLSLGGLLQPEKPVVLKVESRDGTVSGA
Sequence of Cytochrome P450 2C9 (P11712 whole entry): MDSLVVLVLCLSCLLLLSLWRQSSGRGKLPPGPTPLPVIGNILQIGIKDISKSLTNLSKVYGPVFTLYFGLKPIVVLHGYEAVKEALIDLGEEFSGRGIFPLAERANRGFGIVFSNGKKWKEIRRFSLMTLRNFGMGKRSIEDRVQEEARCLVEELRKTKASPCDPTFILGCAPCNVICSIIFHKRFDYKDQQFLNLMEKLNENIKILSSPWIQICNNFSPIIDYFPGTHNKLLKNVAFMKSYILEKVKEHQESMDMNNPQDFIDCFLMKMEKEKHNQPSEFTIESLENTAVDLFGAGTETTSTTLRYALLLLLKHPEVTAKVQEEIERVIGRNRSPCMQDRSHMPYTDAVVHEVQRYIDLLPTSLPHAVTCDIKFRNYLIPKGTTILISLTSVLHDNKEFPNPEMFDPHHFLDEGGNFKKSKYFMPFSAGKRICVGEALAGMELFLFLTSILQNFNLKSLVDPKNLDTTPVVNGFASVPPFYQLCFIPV
Sequence of hERG (KCNH2) (Q12809 whole entry): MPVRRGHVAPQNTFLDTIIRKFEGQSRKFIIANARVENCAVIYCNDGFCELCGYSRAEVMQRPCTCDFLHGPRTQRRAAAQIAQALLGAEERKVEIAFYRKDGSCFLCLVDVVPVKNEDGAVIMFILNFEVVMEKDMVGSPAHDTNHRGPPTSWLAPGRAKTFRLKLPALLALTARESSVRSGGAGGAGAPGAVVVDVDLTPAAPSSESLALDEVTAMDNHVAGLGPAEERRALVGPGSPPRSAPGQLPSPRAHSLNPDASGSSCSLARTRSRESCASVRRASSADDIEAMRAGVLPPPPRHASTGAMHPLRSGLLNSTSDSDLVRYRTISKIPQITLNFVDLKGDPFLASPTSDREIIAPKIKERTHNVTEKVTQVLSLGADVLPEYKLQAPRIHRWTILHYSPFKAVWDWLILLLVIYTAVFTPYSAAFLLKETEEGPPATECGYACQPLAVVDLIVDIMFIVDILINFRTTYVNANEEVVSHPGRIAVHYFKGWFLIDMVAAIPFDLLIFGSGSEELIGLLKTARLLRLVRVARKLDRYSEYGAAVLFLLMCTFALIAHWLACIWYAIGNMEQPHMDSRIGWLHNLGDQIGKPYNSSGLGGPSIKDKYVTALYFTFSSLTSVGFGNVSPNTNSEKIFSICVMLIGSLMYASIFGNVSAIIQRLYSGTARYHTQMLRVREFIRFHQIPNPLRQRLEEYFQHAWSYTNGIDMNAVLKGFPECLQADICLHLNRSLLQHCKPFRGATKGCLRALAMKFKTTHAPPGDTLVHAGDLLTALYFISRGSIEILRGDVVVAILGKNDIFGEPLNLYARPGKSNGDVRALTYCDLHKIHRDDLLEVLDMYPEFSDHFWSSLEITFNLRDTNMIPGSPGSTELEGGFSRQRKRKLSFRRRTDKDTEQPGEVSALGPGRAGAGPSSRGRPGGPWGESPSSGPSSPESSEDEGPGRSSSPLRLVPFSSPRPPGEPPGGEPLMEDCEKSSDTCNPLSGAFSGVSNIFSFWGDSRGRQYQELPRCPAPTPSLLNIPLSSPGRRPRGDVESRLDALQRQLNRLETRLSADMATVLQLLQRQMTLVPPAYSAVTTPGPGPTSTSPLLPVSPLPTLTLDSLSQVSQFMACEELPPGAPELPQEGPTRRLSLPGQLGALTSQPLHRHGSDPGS

AUC at 24 h [1]: 9.77 µM·h
Vdss [2]: 4 L/kg
half-life [3]: 6 h
clearance [4]: 15.8 mL/min/kg
AUC at 24 h [5]: 1.1 µM·h
clearance [6]: 102 mL/min/kg
fraction unbound [7]: 0.43
Papp A→B at 2 h, 50 µM [8]: 3.1 ×10⁻⁶ cm/s
Ki [9]: 0.0041 µM
IC50 [10]: 0.146 µM
CLint scaled at 1 µM [11]: 8.33 mL/min/kg
bioavailability [12]: 96%
IC50 [13]: 0.302 µM
IC50 [14]: > 15 µM
IC50 [15]: > 15 µM
IC50 [16]: > 15 µM
IC50 [17]: > 15 µM
IC50 [18]: > 15 µM
IC50 [19]: > 15 µM
IC50 [21]: > 15 µM
Compound: Cc1cc(CN2CCC2)cc(F)c1-c1cc2c(-c3cnn(C)c3)n[nH]c2cn1
inhibition at 5 µM [20]: 5%
